Results: the NIST ThermoML archive (doi:10.1016/j.jct.2015.12.021)
± gives the expanded uncertainty stated by the source.

Settings: Liquid

Cc1ccc(C)c(C)c1 [1,2,4-trimethylbenzene]
viscosity [mPa·s]
Settings	293.15 K	313.15 K	333.15 K	353.15 K
100 kPa, Vibrating wire viscometry	0.8929 ± 0.015	0.6989 ± 0.012	0.5596 ± 0.01	0.4527 ± 0.0085
1000 kPa, Vibrating wire viscometry	0.9065 ± 0.015	0.7096 ± 0.012	0.5646 ± 0.01	0.4566 ± 0.0086
5000 kPa, Falling or rolling sphere viscometry	0.913 ± 0.045	0.7254 ± 0.036	0.5819 ± 0.029	0.4715 ± 0.023
5000 kPa, Vibrating wire viscometry	0.9417 ± 0.016	0.7359 ± 0.013	0.5885 ± 0.01	0.4711 ± 0.0088
10000 kPa, Falling or rolling sphere viscometry	0.9568 ± 0.047	0.7531 ± 0.037	0.6058 ± 0.03	0.492 ± 0.024
10000 kPa, Vibrating wire viscometry	0.9769 ± 0.016	0.7606 ± 0.013	0.6066 ± 0.011	0.4886 ± 0.0091
20000 kPa, Falling or rolling sphere viscometry	1.042 ± 0.052	0.8131 ± 0.04	0.6529 ± 0.032	0.532 ± 0.026
20000 kPa, Vibrating wire viscometry	1.061 ± 0.018	0.8203 ± 0.014	0.6476 ± 0.011	0.5283 ± 0.0096
30000 kPa, Falling or rolling sphere viscometry	1.137 ± 0.056	0.8704 ± 0.043	0.7014 ± 0.035	0.571 ± 0.028
30000 kPa, Vibrating wire viscometry	1.148 ± 0.019	0.8894 ± 0.015	0.6942 ± 0.012	0.5626 ± 0.01
40000 kPa, Falling or rolling sphere viscometry	1.224 ± 0.061	0.9344 ± 0.046	0.7504 ± 0.037	0.6125 ± 0.03
40000 kPa, Vibrating wire viscometry	1.233 ± 0.02	0.9528 ± 0.016	0.7426 ± 0.013	0.5993 ± 0.011
50000 kPa, Vibrating wire viscometry	1.336 ± 0.022	1.026 ± 0.017	0.7922 ± 0.013	0.6375 ± 0.011
60000 kPa, Falling or rolling sphere viscometry	–	1.07 ± 0.053	0.8467 ± 0.042	0.6967 ± 0.034
60000 kPa, Vibrating wire viscometry	1.435 ± 0.023	1.1 ± 0.018	0.8456 ± 0.014	0.6768 ± 0.012
70000 kPa, Vibrating wire viscometry	1.566 ± 0.025	1.171 ± 0.019	0.9004 ± 0.015	0.7177 ± 0.012
80000 kPa, Falling or rolling sphere viscometry	–	1.25 ± 0.062	0.9594 ± 0.048	0.7819 ± 0.039
80000 kPa, Vibrating wire viscometry	1.693 ± 0.027	1.249 ± 0.02	0.9675 ± 0.016	0.7606 ± 0.013
100000 kPa, Falling or rolling sphere viscometry	–	–	1.086 ± 0.054	0.8778 ± 0.043
100000 kPa, Vibrating wire viscometry	1.952 ± 0.031	1.415 ± 0.023	1.094 ± 0.018	0.8518 ± 0.014
120000 kPa, Falling or rolling sphere viscometry	–	–	1.228 ± 0.061	0.9727 ± 0.048
120000 kPa, Vibrating wire viscometry	2.288 ± 0.036	1.599 ± 0.026	1.221 ± 0.02	0.9515 ± 0.016
140000 kPa, Vibrating wire viscometry	2.668 ± 0.042	1.824 ± 0.029	1.343 ± 0.022	1.065 ± 0.018

CC(C)CC(C)(C)C [2,2,4-trimethylpentane]
viscosity [mPa·s]
Settings	293.15 K	298.15 K	313.15 K	323.15 K	333.15 K	348.15 K	353.15 K
100 kPa, Vibrating wire viscometry	0.5064 ± 0.0094	0.4746 ± 0.0089	0.4035 ± 0.0079	0.3645 ± 0.0073	0.3265 ± 0.0068	0.2829 ± 0.0063	0.2738 ± 0.0061
1000 kPa, Vibrating wire viscometry	0.51 ± 0.0094	0.4819 ± 0.009	0.4114 ± 0.008	0.3694 ± 0.0074	0.3296 ± 0.0069	0.2863 ± 0.0063	0.2748 ± 0.0061
5000 kPa, Falling or rolling sphere viscometry	0.5412 ± 0.027	–	0.4251 ± 0.021	–	0.3468 ± 0.017	–	–
5000 kPa, Vibrating wire viscometry	0.5399 ± 0.0099	0.509 ± 0.0094	0.4353 ± 0.0083	0.3915 ± 0.0077	0.3515 ± 0.0072	0.306 ± 0.0066	0.2923 ± 0.0064
10000 kPa, Falling or rolling sphere viscometry	0.5744 ± 0.029	–	0.4517 ± 0.022	–	0.37 ± 0.018	–	–
10000 kPa, Vibrating wire viscometry	0.5733 ± 0.01	0.5388 ± 0.0098	0.4633 ± 0.0087	0.4157 ± 0.0081	0.3754 ± 0.0075	0.3274 ± 0.0068	0.3175 ± 0.0067
20000 kPa, Falling or rolling sphere viscometry	0.6401 ± 0.032	–	0.5129 ± 0.025	–	0.4153 ± 0.021	–	–
20000 kPa, Vibrating wire viscometry	0.6366 ± 0.011	0.6027 ± 0.011	0.5177 ± 0.0095	0.464 ± 0.0088	0.4216 ± 0.0081	0.3692 ± 0.0074	0.357 ± 0.0072
30000 kPa, Falling or rolling sphere viscometry	0.7047 ± 0.035	–	0.5662 ± 0.028	–	0.459 ± 0.023	–	–
30000 kPa, Vibrating wire viscometry	0.7059 ± 0.012	0.6672 ± 0.012	0.5775 ± 0.01	0.5146 ± 0.0095	0.4705 ± 0.0088	0.4131 ± 0.008	0.3966 ± 0.0078
40000 kPa, Falling or rolling sphere viscometry	0.7738 ± 0.038	–	0.6128 ± 0.03	–	0.5083 ± 0.025	–	–
40000 kPa, Vibrating wire viscometry	0.7817 ± 0.013	0.7394 ± 0.013	0.6351 ± 0.011	0.5714 ± 0.01	0.5232 ± 0.0096	0.4565 ± 0.0086	0.4379 ± 0.0084
50000 kPa, Vibrating wire viscometry	0.8608 ± 0.015	0.8154 ± 0.014	0.6902 ± 0.012	0.6255 ± 0.011	0.579 ± 0.01	0.5022 ± 0.0093	0.4853 ± 0.0091
60000 kPa, Falling or rolling sphere viscometry	0.9262 ± 0.046	–	0.7307 ± 0.036	–	0.6083 ± 0.03	–	–
60000 kPa, Vibrating wire viscometry	0.9567 ± 0.016	0.8956 ± 0.015	0.7509 ± 0.013	0.6832 ± 0.012	0.6246 ± 0.011	0.5476 ± 0.01	0.5294 ± 0.0097
70000 kPa, Vibrating wire viscometry	1.042 ± 0.017	0.9815 ± 0.017	0.8173 ± 0.014	0.742 ± 0.013	0.6779 ± 0.012	0.6049 ± 0.011	0.5738 ± 0.01
80000 kPa, Falling or rolling sphere viscometry	1.115 ± 0.055	–	0.8553 ± 0.042	–	0.6981 ± 0.035	–	–
80000 kPa, Vibrating wire viscometry	1.127 ± 0.019	1.07 ± 0.018	0.8861 ± 0.015	0.7969 ± 0.014	0.728 ± 0.013	0.6507 ± 0.011	0.6288 ± 0.011
100000 kPa, Falling or rolling sphere viscometry	1.298 ± 0.064	–	1.024 ± 0.051	–	0.8101 ± 0.04	–	–
100000 kPa, Vibrating wire viscometry	1.316 ± 0.022	1.234 ± 0.02	1.045 ± 0.017	0.9249 ± 0.016	0.8361 ± 0.014	0.7538 ± 0.013	0.7176 ± 0.013
120000 kPa, Falling or rolling sphere viscometry	–	–	1.185 ± 0.059	–	0.9406 ± 0.047	–	–
120000 kPa, Vibrating wire viscometry	1.518 ± 0.025	1.435 ± 0.024	1.195 ± 0.02	1.068 ± 0.018	0.9606 ± 0.016	0.864 ± 0.015	0.8245 ± 0.014
140000 kPa, Vibrating wire viscometry	1.739 ± 0.028	1.648 ± 0.027	1.363 ± 0.022	1.21 ± 0.02	1.095 ± 0.018	0.977 ± 0.016	0.9332 ± 0.016

CCCCCCCCCCCC [dodecane]
viscosity [mPa·s]
Settings	293.15 K	313.15 K	333.15 K	353.15 K	373.15 K
100 kPa, Vibrating wire viscometry	1.491 ± 0.025	1.064 ± 0.018	0.8013 ± 0.014	0.6281 ± 0.011	0.5055 ± 0.0096
1000 kPa, Vibrating wire viscometry	1.507 ± 0.025	1.074 ± 0.018	0.8127 ± 0.014	0.6372 ± 0.012	0.5149 ± 0.0097
5000 kPa, Falling or rolling sphere viscometry	–	1.135 ± 0.056	0.8518 ± 0.042	0.6657 ± 0.033	–
5000 kPa, Vibrating wire viscometry	1.586 ± 0.027	1.124 ± 0.019	0.855 ± 0.015	0.6713 ± 0.012	0.5392 ± 0.01
10000 kPa, Falling or rolling sphere viscometry	–	1.218 ± 0.061	0.903 ± 0.045	0.7047 ± 0.035	–
10000 kPa, Vibrating wire viscometry	1.672 ± 0.028	1.201 ± 0.021	0.8975 ± 0.016	0.7053 ± 0.013	0.5743 ± 0.011
20000 kPa, Falling or rolling sphere viscometry	–	–	1.002 ± 0.05	0.7791 ± 0.039	–
20000 kPa, Vibrating wire viscometry	1.877 ± 0.031	1.324 ± 0.023	1.001 ± 0.017	0.7819 ± 0.014	0.6286 ± 0.011
30000 kPa, Falling or rolling sphere viscometry	–	–	1.112 ± 0.055	0.8651 ± 0.043	–
30000 kPa, Vibrating wire viscometry	2.084 ± 0.035	1.476 ± 0.025	1.095 ± 0.019	0.8694 ± 0.015	0.7003 ± 0.013
40000 kPa, Falling or rolling sphere viscometry	–	–	1.223 ± 0.061	0.9597 ± 0.048	–
40000 kPa, Vibrating wire viscometry	2.31 ± 0.038	1.625 ± 0.027	1.216 ± 0.021	0.9528 ± 0.017	0.7715 ± 0.014
50000 kPa, Vibrating wire viscometry	2.56 ± 0.042	1.778 ± 0.03	1.321 ± 0.023	1.037 ± 0.018	0.8425 ± 0.015
60000 kPa, Falling or rolling sphere viscometry	–	–	–	1.121 ± 0.056	–
60000 kPa, Vibrating wire viscometry	2.822 ± 0.047	1.946 ± 0.032	1.44 ± 0.024	1.123 ± 0.019	0.91 ± 0.016
70000 kPa, Vibrating wire viscometry	3.112 ± 0.051	2.129 ± 0.035	1.576 ± 0.026	1.213 ± 0.021	0.9844 ± 0.017
80000 kPa, Vibrating wire viscometry	3.428 ± 0.056	2.32 ± 0.038	1.707 ± 0.029	1.312 ± 0.022	1.066 ± 0.018
100000 kPa, Vibrating wire viscometry	4.117 ± 0.068	2.758 ± 0.046	1.994 ± 0.033	1.532 ± 0.026	1.22 ± 0.021
120000 kPa, Vibrating wire viscometry	4.953 ± 0.081	3.231 ± 0.053	2.302 ± 0.038	1.757 ± 0.029	1.402 ± 0.024
140000 kPa, Vibrating wire viscometry	5.816 ± 0.095	3.755 ± 0.062	2.657 ± 0.044	2.023 ± 0.034	1.588 ± 0.027
